The text below walks through data of publication PMC7181660, “A novel specific PERK activator reduces toxicity and extends survival in Huntington's disease models” (Scientific Reports, 2020).

pEC50: −log10 of the molar value.

In assay [1] the target is T1, PERK (EIF2AK3) (Homo sapiens, UniProt Q9NZJ5).
T1 construct: GST; purchased Life technologies, Carlsbad, CA; host or cells: insect cells
T1 sequence (Q9NZJ5 536-1116): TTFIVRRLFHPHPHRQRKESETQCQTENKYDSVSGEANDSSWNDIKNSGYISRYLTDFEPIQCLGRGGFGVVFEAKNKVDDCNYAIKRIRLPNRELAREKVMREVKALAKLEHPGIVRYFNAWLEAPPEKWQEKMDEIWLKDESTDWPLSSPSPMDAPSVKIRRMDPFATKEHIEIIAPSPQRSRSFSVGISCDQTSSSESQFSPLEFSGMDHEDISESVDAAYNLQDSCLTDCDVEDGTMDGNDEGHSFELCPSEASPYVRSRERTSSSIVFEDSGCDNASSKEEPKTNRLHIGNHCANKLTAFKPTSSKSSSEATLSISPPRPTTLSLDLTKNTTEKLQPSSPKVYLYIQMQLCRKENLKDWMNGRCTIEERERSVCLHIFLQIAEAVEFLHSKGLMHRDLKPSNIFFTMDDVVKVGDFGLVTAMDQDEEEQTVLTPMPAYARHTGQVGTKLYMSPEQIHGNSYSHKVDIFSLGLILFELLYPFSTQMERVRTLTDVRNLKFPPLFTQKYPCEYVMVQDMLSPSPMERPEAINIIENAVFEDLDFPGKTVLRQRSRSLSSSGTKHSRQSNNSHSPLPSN
Put plainly: In vitro HotSpot kinase assay on isolated PERK. Format: biochemical. The conditions noted are these: isolated PERK, 1 μM ATP; read-out: EC50 of PERK activation. Here is the method:
In vitro kinase assays with purified components and full kinase panel analysis was done at Reaction Biology Corp. (Malvern, PA, USA) using the HotSpot Kinase Assay. Reactions were performed for 20 min at room temp. using ^33P-ATP (Specific activity 10 μCi/μl) with 1 μM total ATP, 20 μM substrate and kinases in the nanomolar range in 20 mM Hepes (pH 7.5), 10 mM MgCl2, 1 mM EGTA, 0.02% Brij35, 0.02 mg/ml BSA, 0.1 mM Na3VO4, 2 mM DTT, 1% DMSO and other required factors depending on the assayed kinase.

Assay [2] relates to R6/2 HD mouse model. Put plainly: Combined phenotype score (hind limb clasping, ledge, gait, kyphosis). It counts as in vivo, mice. The conditions noted are these: R6/2 TG, 1 mg/kg subcutaneous 28 days. Here is the method: […]. Measures include hind limb clasping, ledge test, gait and kyphosis. See detailed information in Supplementary methods.
Group # Animals # Treatment Volume bleeding and
Determination of MK-28 levels in the plasma and brain were performed by LC/MS/MS using
generic methods in the bioanalytical lab of WuXi AppTec Co., Ltd. (Shanghai, China). The
MK-28 concentrations were determined in the plasma and whole perfused brain tissues of the
animals following a single IP injection of 10 mg/kg.
Combined phenotype: A method assessing a combination of different disease -phenotypes
was used to evaluate disease progression. Phenotypic evaluation includes hind-limb
clasping, ledge test, gait and kyphosis. Limb clasping: hind-limb clasping behavior was
evaluated and different scores were given based on their performance on a scale from 0 to 3: 0
= normal; 1 = clasps hind-limb s within 30s of being suspended in the air; 2 = cla sps hind-limb s
within 5s, recovering when released after 30s; 3 = clasps hind-limbs within 5s and has difficulty
recovering when released after 30s. Ledge test: The ledge test evaluates motor coordination by
placing mice on the ledge of the cage. Typically, mice will walk along the ledge and attempt
to descend back into the cage. Walking without losing balance is considered normal and
assigned a score of 0. A score of 1 is given if the mouse misse s its footing while walking. If […]

Assay [3] has as its system R6/2 HD mouse model. Nature of the assay: Blood glucose levels. It counts as in vivo, mice. The conditions noted are these: TG + MK-28. Here is the method: For blood glucose measurements, blood samples from all the evaluated groups (n = 34) were obtained from the tail and measured with the Accu-Check glucose monitor (Roche Diagnostics, USA). Two independent glucose measurements were performed at the same hour 3 and 12 weeks after birth corresponding to the asymptomatic and symptomatic stages respectively. Glucose levels are expressed in mg/dl.

In assay [4] the test system is R6/2 HD mouse model. Nature of the assay: Ultrasonic vocalizations. Format: in vivo, mice. Conditions: R6/2 TG males. As to the method: Ultrasonic vocalizations were recorded on males during the first 5 minutes of female exposure, 12 weeks after birth. Vocal emissions were monitored by an UltraSoundGate Condenser Microphone (CM 16; Avisoft Bioacoustics, Berlin, Germany) placed 16 cm above the floor of each male's cage. […]. […] Spectrograms were produced at 586 Hz of frequency resolution and 0.427 ms of time resolution. Figure plotted by MATLAB code.

For `CN(/N=C\c1ccc(O)c(O)c1)c1nc(-c2ccccc2)cc(-c2ccccc2)n1` [MK-28], in assay [1], the pEC50 was 6.31. Besides, the composite phenotype score in assay [2] (week 6) is listed as 3.14 ± 1.41; in assay [2] (week 8), 4.4 ± 0.55. The “glucose increase ratio between disease stages (symptomatic vs asymptomatic)” value in assay [3] was determined as 109.60 ± 5.04%. In assay [4] (12 weeks after birth), this molecule had a vocalizations of 16 syllables in 5 min. In assay [4] (p = 0.059), the “increase of vocalizations vs untreated TG” value is recorded as “three-fold increase”.
